The values below come from ChEMBL document CHEMBL1125541, “Synthesis and antiviral evaluation of N-carboxamidine-substituted analogues of 1-beta-D-ribofuranosyl-1,2,4-triazole-3-carboxamidine hydrochloride” (J Med Chem, 1992).

Structures are written as SMILES. ≈ marks a conversion by molar mass, not a printed value. Where “and” joins values, the source holds several entries; their conditions need not be identical. Equal entries are not always repeated.

A short description of series [1]: Compound was tested in vitro for antiviral activity against Punta Toro (PT) virus (Concentration required for the 50%inhibition of virus-induced cell death). Format: functional.
A short description of series [2]: Compound was tested in vitro for antiviral activity against sandfly fever-Sicilian (SF) virus (Concentration which was cytotoxic to 50% of uninfected cells). The settings on record: read-out: TC50 (the source's name).
Series [3] is described as follows: Compound was tested in vitro for antiviral activity against sandfly fever-Sicilian (SF) virus (Concentration required for the 50%inhibition of virus-induced cell death). The format is functional.
The nature of series [4]: Compound was tested in vitro for antiviral activity against Punta Toro (PT) virus (Concentration which was cytotoxic to 50% of uninfected cells). Particulars: read-out: TC50 (the source's name); call rule not given here.
In series [5] the test system is dengue virus type 4. The experiment in a line: Compound was tested in vitro for antiviral activity against dengue-4- virus (Concentration required for the 50%inhibition of virus-induced cell death). The format is functional, organism-based.
The nature of series [6]: Compound was tested in vitro for antiviral activity against sandfly fever-Sicilian (SF) virus (Concentration required for the 50%inhibition of virus-induced cell death); inactive. Format: functional.
Series [7] can be described thus: Compound was tested in vitro for antiviral activity against dengue-4- virus (Concentration which was cytotoxic to 50% of uninfected cells). Particulars: read-out: TC50 (the source's name).
Series [8] in a line: Compound was tested in vitro for antiviral activity against Punta Toro (PT) virus (Concentration required for the 50%inhibition of virus-induced cell death); inactive. The format is functional.
Series [9] can be described thus: Therapeutic index is expressed as ratio of TC50/IC50. Particulars: for selectivity ratio: read-out: TI50.
For a further series, the system named is Vaccinia virus. The experiment in a line: Compound was tested in vitro for antiviral activity against vaccinia virus (Concentration required for the 50%inhibition of virus-induced cell death). The format is functional, organism-based. The settings on record: Orthopoxvirus vaccinia.
The nature of series [10]: Compound was tested in vitro for antiviral activity against vaccinia virus (Concentration which was cytotoxic to 50% of uninfected cells). The format is organism-based. Particulars: orthopoxvirus vaccinia, read-out: TC50 (the source's name).
Series [11] deals with dengue virus type 4. The experiment in a line: Compound was tested in vitro for antiviral activity against dengue-4-virus (Concentration required for the 50%inhibition of virus-induced cell death). Format: functional, organism-based.
Series [12] in a line: Compound was tested in vitro for antiviral activity against dengue-4-virus (Concentration which was cytotoxic to 50% of uninfected cells). The settings on record: dengue virus type 4, uninfected cells; read-out: TC50 (the source's name).
Series [13] has as its system Influenza A virus. The experiment in a line: Compound was tested in vitro for antiviral activity against influenza A virus (Concentration required for the 50%inhibition of virus-induced cell death). The format is functional, organism-based.
The nature of series [14]: Compound was tested in vitro for antiviral activity against parainfluenza type 3 virus (Concentration which was cytotoxic to 50% of uninfected cells). Particulars: human respirovirus 3, uninfected cells; read-out: TC50 (the source's name).
The nature of series [15]: Compound was tested in vitro for antiviral activity against influenza A virus (Concentration which was cytotoxic to 50% of uninfected cells). The format is organism-based. Particulars: read-out: TC50 (the source's name).
Series [16] deals with Respiratory syncytial virus. The experiment in a line: Compound was tested in vitro for antiviral activity against respiratory syncitial virus (Concentration required for the 50%inhibition of virus-induced cell death). The format is functional, organism-based. Particulars: human respiratory syncytial virus.
A further series concerns Human respirovirus 3. The experiment in a line: Compound was tested in vitro for antiviral activity against parainfluenza type 3 virus (Concentration required for the 50%inhibition of virus-induced cell death). Format: functional, organism-based.
The nature of series [17]: Compound was tested in vitro for antiviral activity against respiratory syncitial virus (Concentration which was cytotoxic to 50% of uninfected cells). Particulars: read-out: TC50 (the source's name).
Series [18] deals with Influenza A virus. The experiment in a line: Compound was tested in vitro for antiviral activity against influenza B virus (Concentration required for the 50%inhibition of virus-induced cell death). The format is functional, organism-based.
A short description of series [19]: Compound was tested in vitro for antiviral activity against Punta Toro (PT) virus (Concentration required for the 50%inhibition of virus-induced cell death); IA - Viral cytopathic effect reduced 25%-49% only. Format: functional.

Consider `NC(=O)CC(/N=C(/N)c1ncn(C2O[C@H](CO)[C@@H](O)[C@H]2O)n1)C(=O)O` (some centres not stated), for which the values for the IC50 in [1] and in [3] were 1600 µg/mL (≈ 4470 µM) and 484 µg/mL (≈ 1350 µM), respectively. Also, the CC50 in series [2] and in series [4] was greater than 3200 µg/mL in each case.

With `N#C/N=C(/N)c1ncn(C2O[C@H](CO)[C@@H](O)[C@H]2O)n1` (some centres not stated), the figures for the half-inhibitory concentration (IC50) (with dengue virus type 4 [5]; in [6]; in [8]) were 250 µg/mL (≈ 932 µM), “Not Active” and “Not Active”, respectively. The CC50 in series [7] is greater than 250 µg/mL; in [2] it was greater than 1000 µg/mL; in series [4], greater than 1000 µg/mL. Moreover, the selectivity ratio in series [9] was greater than 1.

Regarding `C/N=C(\NC)c1ncn([C@@H]2O[C@H](CO)[C@@H](O)[C@H]2O)n1.Cl`, the IC50 in the series with Vaccinia virus was 184 µg/mL; in series [1], 181 µg/mL; in series [3], 94 µg/mL; in the series on dengue virus type 4 [11] it was 162 µg/mL. The CC50 is greater than 1000 µg/mL in [10], greater than 1000 µg/mL in [2], greater than 250 µg/mL in series [12] and 2900 µg/mL in [4].

Regarding `C/N=C(/N)c1ncn([C@@H]2O[C@H](CO)[C@@H](O)[C@H]2O)n1.Cl`, the half-maximal inhibitory concentration (IC50) in the series with Vaccinia virus was found to be 198 µg/mL; in the series on Influenza A virus [13], 63 µg/mL; in series [1] it was 250 µg/mL; in series [3], 104 µg/mL; in series [16], 24 µg/mL; with Human respirovirus 3 it was 125 µg/mL. For the same molecule, the CC50 in series [10] was greater than 320 µg/mL; in [2], greater than 1000 µg/mL; in [14], greater than 1000 µg/mL; in series [15], greater than 1000 µg/mL; in series [17] (respiratory syncytial virus) it was greater than 1000 µg/mL; in [4], greater than 1000 µg/mL.

For `CCCCCCCC/N=C(/N)c1ncn(C2O[C@H](CO)[C@@H](O)[C@H]2O)n1` (some centres not stated), the CC50 in series [2] and in series [4] was greater than 1000 µg/mL throughout. In addition, the IC50 is 339 µg/mL (≈ 954 µM) in series [3] and “Not Active” in [8]. Besides, in series [9], the selectivity ratio is greater than 3.

As for `Cl.OC[C@H]1O[C@@H](n2cnc(C3=NCC(O)CN3)n2)[C@H](O)[C@@H]1O` (some centres not stated), the IC50 result in series [6] and in series [8] was “Not Active” each time. The CC50 in [2] and in [4] was greater than 320 µg/mL throughout.

For `CNC(=O)c1ncn([C@@H]2O[C@H](CO)[C@@H](O)[C@H]2O)n1`, the IC50 result in series [6] and in series [8] was “Not Active” each time. Also, the CC50 in series [2] and in series [4] was greater than 320 µg/mL each time.

Consider `Cl.OC[C@H]1O[C@@H](n2cnc(C3=NCCCN3)n2)[C@H](O)[C@@H]1O`, for which the IC50 entry in [6] and in [8] was “Not Active” each time. For the same molecule, the CC50 in series [2] and in series [4] was greater than 3200 µg/mL throughout.

Turning to `COC(=N)c1ncn([C@@H]2O[C@H](CO)[C@@H](O)[C@H]2O)n1`, the half-inhibitory concentration (IC50) in series [1] is 201 µg/mL (≈ 778 µM); in [3], 98 µg/mL (≈ 380 µM); in the series with dengue virus type 4 [11], 76 µg/mL (≈ 294 µM). In addition, the CC50 in [2] was 840 µg/mL (≈ 3250 µM); in [12], greater than 250 µg/mL; in series [4], 744 µg/mL (≈ 2880 µM). Also, in [9], the TI50 was 8.6 and 3.7 and > 3.3.

`Cl.N=C(N)c1ncn([C@@H]2O[C@H](CO)[C@@H](O)[C@H]2O)n1` [TARIBAVIRIN HYDROCHLORIDE]: the 50% inhibitory concentration (IC50) is 48 µg/mL with Influenza A virus [18]; 100 µg/mL in the series with dengue virus type 4 [5]; 59 µg/mL in the series on Vaccinia virus; 83 µg/mL in series [1]; 36 µg/mL in series [3]; 16 µg/mL in series [16]. The CC50 in [10] is greater than 320 µg/mL; in series [2] it was 800 µg/mL; in series [15] it was greater than 1000 µg/mL; in [12] it was 250 µg/mL; in series [17] (human respiratory syncytial virus) it was greater than 1000 µg/mL; in series [4] it was 752 µg/mL.

Consider `CCCC/N=C(/N)c1ncn(C2O[C@H](CO)[C@@H](O)[C@H]2O)n1` (some centres not stated), for which the 50% inhibitory concentration (IC50) in series [1] worked out at 41 µg/mL (≈ 137 µM); in series [3] it was 73 µg/mL (≈ 244 µM). The CC50 in series [2] is greater than 1000 µg/mL; in series [4], 660 µg/mL (≈ 2200 µM). In addition, the TI50 in series [9] is 16. Besides, the selectivity ratio in [9] turned out to be 13.7.

Take `NC(=O)CCC(/N=C(/N)c1ncn(C2O[C@H](CO)[C@@H](O)[C@H]2O)n1)C(=O)O` (some centres not stated): the IC50 was determined as 2690 µg/mL (≈ 7220 µM) in [1] and 547 µg/mL (≈ 1470 µM) in [3]. Besides, the CC50 in series [2] and in [4] was greater than 3200 µg/mL throughout.

For the molecule `N/C(=N/CC(=O)O)c1ncn(C2O[C@H](CO)[C@@H](O)[C@H]2O)n1` (some centres not stated), the CC50 in series [2] was greater than 3200 µg/mL; in series [4], greater than 1000 µg/mL. Moreover, the values for the 50% inhibitory concentration (IC50) in series [3] and in series [19] were 566 µg/mL (≈ 1880 µM) and “Not Active”, respectively. Also, the selectivity ratio in series [9] is greater than 5.66.

As usually defined, the IC50 is the concentration needed to halve the response being measured. A lower IC50 goes with higher potency.
